Series [1] relates to polyamine transporter. The series is described as follows: Inhibition of [3H]putrescine uptake in ZR-75-1 cells. The class given is cell-based, human. To be noted: for Mode of inhibition of [3H]putrescine uptake: Lineweaver-Burke, DESC up to 100 μM, MESC up to 200 μM; for Ki: ZR-75-1 cells. As for the experimental part: The rate of putrescine and spermidine transport was determined in ZR-75-1 cells incubated in serum-free RPMI 1640 medium as described (Lessard, M., Zhao, C., Singh, S. M. and Poulin, R. 1995. J. Biol. Chem. 270: 1685-1694), using [^3H]putrescine (30 Ci/mol) and [^3H]spermidine (20 Ci/mol), respectively as substrates for a 20 minute-assay period. Spermine uptake was similarly determined, using 1 μM [^14C]spermine (32 Ci/mol) as substrate. Uptake activity was expressed per amount of DNA as fluorometrically determined using 3,4-diaminobenzoic acid (Simard, J., Dauvois, S., Haagensen, D. E., Lėvesque, C., Mėrand, Y. and Labrie, F. 1990. Endocrinology, 126: 3223-3231). For the determination of spermidine uptake activity in CHO-K1 cells, 80% confluent cell monolayers were rinsed twice with PBS and incubated for 20 minutes at 37° C. in 400 μl of buffer A (20 mM Tris-HCl, pH 7.4; 0.42 mM CaCl2; 0.41 mM MgSO4; 103 mM NaCl; 5.7 mM KCl; 1.1 mM D-glucose) containing 5 μM [^3H]spermidine (20 Ci/mol). Cell cultures were then washed twice with 1 ml PBS containing 5.7 mM sym-norspermidine. Cells were then lysed with 200-μl aliquot of 1 N NaOH and incubated for 30 minutes at 60° C. After neutralization with 200 μl of 1 N HCl, radioactivity was determined from a 250-μl of the cell lysate by scintillation counting. Uptake activity was expressed per amount of total cellular protein as determined by the method of Bradford (Bradford, M. M. 1976. Anal. Biochem. 72: 248-254). Non-specific binding of radioactive substrate was similarly determined in parallel for both cell lines after a 15 second-incubation with 400 μl of ice-cold uptake solution.
Kinetic analysis of polyamine transport was performed by determining uptake activity in the presence of a 3 μM [^3H]putrescine or 1 μM [^3H]spermidine plus increasing concentrations of nonradioactive substrate. K[…] Ki and Vmax values were then estimated by Lineweaver-Burke analysis. For competitive inhibitors, Ki values were also estimated by measuring uptake activity in the presence of logarithmically increasing concentrations of antagonist, and using the Cheng-Prusoff equation (Cheng, Y.-C. and Prusoff, W. H. 1973. Biochem. Pharmacol. 22: 3099-3108) by iterative curve fitting for a sigmoidal curve. For mixed competitive/noncompetitive inhibition, two methods were used to calculate kinetic constants. First, the equation [drawing 2] where v, s, and i are the transport velocity, substrate concentration and inhibitor concentration respectively, was used to calculate the inhibition constants for inhibitor/carrier complex formation (Ki) and carrier/inhibitor/substrate complex formation (Ki′) (Dixon, M. and Webb, E. C. 1976. Enzymes, 3rd Ed., Academic Press, San Diego, Calif.). Alternatively, the value of Ki for a mixed competitor/non-competitor was estimated from the intersect of equations v^−1 vs i at two different substrate concentrations (Dixon, M. and Webb, E. C. 1976. Enzymes, 3rd Ed., Academic Press, San Diego, Calif.). Intracellular Accumulation
In order to evaluate the effectiveness of dimeric triamines as polyamine transport inhibitors, we synthesized N,N′-bis(3-aminopropyl),N,N′-bis(4-aminobutyl)cystamine or BABAC (structure 1, FIG. 25; FIG. 31), and its thiol form N-(3-aminopropyl),N-(4-aminobutyl)cysteamine or AAC (FIG. 31) according to Scheme 4 described above (FIG. 30), using spermidine as a precursor polyamine. The ability of BABAC and AAC to inhibit the intracellular uptake of radio-labeled putrescine and spermidine in the ZR-75-1 human breast cancer cell line was then determined according to standard published procedures (Lessard, et al. and Poulin, et al.) Briefly, ZR-75-1 cells were grown for four days in twenty-four well plates in RPMI 1640 medium supplemented with 10% fetal bovine serum.

For series [2], the system named is ZR-75-1 cells. The series is described as follows: Intracellular accumulation of inhibitor and polyamine contents (HPLC) in ZR-75-1 cells. The class given is cell-based, human.
Series [3] deals with polyamine transporter. As to the kind of experiment: Inhibition of [3H]spermidine uptake in CHO-K1 cells. The class given is cell-based, Chinese hamster. To be noted: [3H]spermidine as substrate. On the procedure:
To 1 ml of an extemporaneously prepared, DTT-free solution of MESC (20 mM in […]) were added 50 μl of 50 mM Tris-HCl (pH 7.0) and 105 μl of a 40 mM solution of either iodoacetamide, LY iodoacetamide or ASIB in a light-protected microcentrifuge tube, and the mixture was incubated for 2 hours at 37° C. […] Excess iodoacetamide was then inactivated by adding DTT to a final concentration of 40 mM and incubating the solution for 2 hours at 37° C. […] The effect of the respective DTT-inactivated iodoacetamide on spermidine transport was determined in parallel by incubating cells with the same reaction mixture from which MESC was omitted. […] J. Biol. […] Cells were then lysed with 200-μl aliquot of 1 N NaOH and incubated for 30 minutes at 60° C. After neutralization with 200 μl of 1 N HCl, radioactivity was determined from a 250-μl of the cell lysate by scintillation counting. Uptake activity was expressed per amount of total cellular protein as determined by the method of Bradford (Bradford, M. M. 1976. Anal. Biochem. 72: 248-254). […] K[…] Ki and Vmax values were then estimated by Lineweaver-Burke analysis. For competitive inhibitors, Ki values were also estimated by measuring uptake activity in the presence of logarithmically increasing concentrations of antagonist, and using the Cheng-Prusoff equation (Cheng, Y.-C. and Prusoff, W. H. 1973. Biochem. Pharmacol. 22: 3099-3108) by iterative curve fitting for a sigmoidal curve. For mixed competitive/noncompetitive inhibition, two methods were used to calculate kinetic constants. […] C. 1976. Enzymes, 3rd Ed., Academic Press, San Diego, Calif.). […] C. 1976. Enzymes, 3rd Ed., Academic Press, San Diego, Calif.). Intracellular Accumulation

Setting [4] is: this work, DEASC: Ki of mixed competitive/non-competitive model, read-out: Ki, putrescine transport.
Where [5] appears, read: 200 μM compound + 200 μM CHX, 1 h.
Where [6] appears, read: 200 μM compound + 200 μM CHX, 6 h.

Bounds are passed on as bounds.

From patent publication US6949679B1, “Polyamine transport inhibitors” (Universite Laval, priority 1998, dated 2005) come the findings set out here.

For `NCCCNCCCC(NCCCN)C(=O)NCCSSCCNC(=O)C(CCCNCCCN)NCCCN` (centres unmarked) [DESC, 2,2′-dithiobis(N-ethyl-spermine-5-carboxamide)], in series [1], the “Mode of inhibition of [3H]putrescine uptake” value is recorded as “pure competitive inhibitors”. Moreover, the Ki worked out at 0.54 µM in series [1] (FIG. 32, 20 μM and 3 μM substrate, respectively, read-out: Apparent Ki, putrescine uptake); 1.6 ± 0.5 µM in series [1] (setting [4]); 0.92 ± 0.15 µM in series [3]. In addition, the Spermine intracellular content in series [2] (50 μM compound, 1 h) was 8.27 ± 0.81 nmol/mg protein; in series [2] (setting [5]) it was 9.57 ± 0.31 nmol/mg protein; in series [2] (setting [6]) it was 9.55 ± 0.13 nmol/mg protein; in series [2] (200 μM compound, 1 h), 8.77 ± 0.79 nmol/mg protein; in series [2] (200 μM compound, 6 h) it was 8.66 ± 0.26 nmol/mg protein. In addition, in series [2] (200 μM DESC, 6-hour incubation), the “DESC accumulation as % of accumulation measured for spermine under identical conditions” value was “about 1.5%”. Moreover, the DESC intracellular content in series [2] (setting [5]) is recorded as less than 0.01 nmol/mg protein; in series [2] (setting [6]), 0.10 nmol/mg protein. For the same molecule, in series [2] (setting [5]), the Spermidine intracellular content turned out to be 0.75 ± 0.04 nmol/mg protein.

With `NCCCNCCCC(NCCCN)C(=O)NCCS` (centres unmarked) [MESC, N-(2-mercaptoethyl)spermine-5-carboxamide], the “Mode of inhibition of [3H]putrescine uptake” value in series [1] was “pure competitive inhibitors”. For the same molecule, the figures for the Ki in series [1] (setting [4]) and in series [3] were 22 ± 3 µM and 33.6 ± 7.2 µM, respectively. The Spermine intracellular content in series [2] (50 μM compound, 1 h) is given as 7.77 ± 0.06 nmol/mg protein; in series [2] (50 μM compound, 6 h) it was 8.13 ± 0.17 nmol/mg protein; in series [2] (200 μM compound, 1 h), 8.93 ± 0.53 nmol/mg protein; in series [2] (200 μM compound, 6 h) it was 8.32 ± 0.43 nmol/mg protein.
